Measured values: patent US4990499A, “Anti-herpes simplex virus activity of 5-alkoxymethyl-2'-deoxycytidimes and their 5-monophosphates” (priority 1989, dated 1991)

Columns and labels:
[1] = biological target: T1, human DNA polymerase alpha (Homo sapiens, UniProt P09884); assay: In vitro DNA synthesis by human DNA polymerase alpha ([3H]dAMP incorporation); format: biochemical; conditions: Human α-DNA polymerase
T1 sequence (P09884 1-1462): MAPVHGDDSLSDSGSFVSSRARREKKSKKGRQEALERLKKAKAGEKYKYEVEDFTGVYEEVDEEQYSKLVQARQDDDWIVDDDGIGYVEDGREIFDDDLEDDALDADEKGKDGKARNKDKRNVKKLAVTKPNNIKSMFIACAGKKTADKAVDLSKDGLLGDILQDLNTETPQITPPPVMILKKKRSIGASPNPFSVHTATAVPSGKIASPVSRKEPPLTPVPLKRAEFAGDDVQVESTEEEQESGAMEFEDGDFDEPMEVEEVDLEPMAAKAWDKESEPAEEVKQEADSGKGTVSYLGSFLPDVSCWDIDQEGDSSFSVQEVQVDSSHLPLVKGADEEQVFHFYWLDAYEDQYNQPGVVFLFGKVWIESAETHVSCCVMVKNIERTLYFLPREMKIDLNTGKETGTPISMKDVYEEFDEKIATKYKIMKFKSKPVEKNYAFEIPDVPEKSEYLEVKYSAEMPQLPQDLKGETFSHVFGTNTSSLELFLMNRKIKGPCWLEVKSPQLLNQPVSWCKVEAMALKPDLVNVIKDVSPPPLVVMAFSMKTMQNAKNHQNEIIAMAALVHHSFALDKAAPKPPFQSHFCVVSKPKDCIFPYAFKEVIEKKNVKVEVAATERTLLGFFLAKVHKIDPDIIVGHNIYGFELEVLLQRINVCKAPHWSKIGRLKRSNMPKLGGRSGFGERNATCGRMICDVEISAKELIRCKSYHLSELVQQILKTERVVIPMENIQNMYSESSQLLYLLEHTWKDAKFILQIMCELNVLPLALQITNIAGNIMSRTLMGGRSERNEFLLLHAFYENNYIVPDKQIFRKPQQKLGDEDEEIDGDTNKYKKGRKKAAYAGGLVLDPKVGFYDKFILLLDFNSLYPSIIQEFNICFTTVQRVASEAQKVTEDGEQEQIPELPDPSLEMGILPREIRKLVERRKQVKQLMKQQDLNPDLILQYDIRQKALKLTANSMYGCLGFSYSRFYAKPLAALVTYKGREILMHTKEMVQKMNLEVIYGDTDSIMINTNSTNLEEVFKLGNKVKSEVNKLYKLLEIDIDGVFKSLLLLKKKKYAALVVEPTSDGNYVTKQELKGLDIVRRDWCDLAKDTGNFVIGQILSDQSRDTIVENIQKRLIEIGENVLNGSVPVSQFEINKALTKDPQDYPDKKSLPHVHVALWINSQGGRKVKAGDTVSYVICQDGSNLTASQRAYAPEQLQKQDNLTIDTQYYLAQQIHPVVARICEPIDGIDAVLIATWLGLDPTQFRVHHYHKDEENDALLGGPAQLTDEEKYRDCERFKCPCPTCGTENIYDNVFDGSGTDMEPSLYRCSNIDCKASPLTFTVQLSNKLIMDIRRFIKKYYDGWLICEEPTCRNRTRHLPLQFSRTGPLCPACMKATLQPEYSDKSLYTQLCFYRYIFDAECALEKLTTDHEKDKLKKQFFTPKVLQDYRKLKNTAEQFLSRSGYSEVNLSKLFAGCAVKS
Procedure: A comparison of in vitro DNA synthesis by viral and cellular DNA polymerases with MMdCTP as an alternative substrate. The results are shown graphically in FIG. 14 and compare HSV-1 DNA polymerase and human DNA polymerase alpha activity.
(§1) The number of pmoles of [^3 H] dAMP incorporated into control samples (`O`MMdCTP) was subtracted from pmoles of test samples. Other nucleotides,dATP, dTTP and dGTP were in excess (10 μm). Each assay was performed in triplicate.
(§2) ^+ unlabeled dNTP concentration (10 μM).
(§3) ^++ 0.2 μM of [^3 H]dATP was used in each assay.

E. coli DNA Polymerase 1 = E. coli DNA Polymerase 1 (Escherichia coli, UniProt P00582); assay: In vitro DNA synthesis by E. coli DNA polymerase 1 ([3H]dAMP incorporation); format: biochemical
Sequence of E. coli DNA Polymerase 1 (P00582 whole entry): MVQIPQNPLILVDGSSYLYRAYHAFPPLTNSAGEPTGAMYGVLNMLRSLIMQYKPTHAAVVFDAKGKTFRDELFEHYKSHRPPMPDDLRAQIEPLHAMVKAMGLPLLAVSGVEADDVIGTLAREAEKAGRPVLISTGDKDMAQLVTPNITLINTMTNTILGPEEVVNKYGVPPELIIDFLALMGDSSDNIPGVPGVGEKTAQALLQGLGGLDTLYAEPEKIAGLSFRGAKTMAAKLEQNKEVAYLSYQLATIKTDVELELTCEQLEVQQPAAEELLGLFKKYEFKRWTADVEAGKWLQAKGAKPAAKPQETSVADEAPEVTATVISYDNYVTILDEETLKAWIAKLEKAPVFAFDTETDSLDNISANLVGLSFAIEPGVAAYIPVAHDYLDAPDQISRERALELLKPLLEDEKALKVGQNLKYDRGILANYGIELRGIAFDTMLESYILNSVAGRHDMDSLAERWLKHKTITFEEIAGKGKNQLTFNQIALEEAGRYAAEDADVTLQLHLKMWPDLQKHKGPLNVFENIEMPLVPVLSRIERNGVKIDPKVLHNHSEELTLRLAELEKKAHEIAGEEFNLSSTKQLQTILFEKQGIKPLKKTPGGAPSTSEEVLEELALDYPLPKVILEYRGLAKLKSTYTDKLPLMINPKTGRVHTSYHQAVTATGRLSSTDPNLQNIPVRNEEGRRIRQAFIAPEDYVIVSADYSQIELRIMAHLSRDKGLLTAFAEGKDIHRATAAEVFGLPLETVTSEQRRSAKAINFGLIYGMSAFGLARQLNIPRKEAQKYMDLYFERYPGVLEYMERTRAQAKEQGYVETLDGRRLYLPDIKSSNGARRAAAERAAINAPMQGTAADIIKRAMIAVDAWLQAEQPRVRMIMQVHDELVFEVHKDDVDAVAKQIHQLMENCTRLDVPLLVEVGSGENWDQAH
Procedure: ^a Enzymatic assays were carried out with 1 unit of Sigma E. coli DNA
Polymerase 1. dTTP, dGTP and [^3 H] dATP were non limiting (5 μM).
^b Values obtained are net after subtracting "0" samples which did no
^c Amount of NMeMMdCTP used with each concentration of dCTP was 0.625

HSV-1 DNA Polymerase = HSV-1 DNA Polymerase (Human herpesvirus 1, UniProt P04293); assay: In vitro DNA synthesis by HSV-1 DNA polymerase ([3H]dAMP incorporation); format: biochemical, Herpes simplex virus type 1; conditions: HSV-1 DNA polymerase
Sequence of HSV-1 DNA Polymerase (P04293 whole entry): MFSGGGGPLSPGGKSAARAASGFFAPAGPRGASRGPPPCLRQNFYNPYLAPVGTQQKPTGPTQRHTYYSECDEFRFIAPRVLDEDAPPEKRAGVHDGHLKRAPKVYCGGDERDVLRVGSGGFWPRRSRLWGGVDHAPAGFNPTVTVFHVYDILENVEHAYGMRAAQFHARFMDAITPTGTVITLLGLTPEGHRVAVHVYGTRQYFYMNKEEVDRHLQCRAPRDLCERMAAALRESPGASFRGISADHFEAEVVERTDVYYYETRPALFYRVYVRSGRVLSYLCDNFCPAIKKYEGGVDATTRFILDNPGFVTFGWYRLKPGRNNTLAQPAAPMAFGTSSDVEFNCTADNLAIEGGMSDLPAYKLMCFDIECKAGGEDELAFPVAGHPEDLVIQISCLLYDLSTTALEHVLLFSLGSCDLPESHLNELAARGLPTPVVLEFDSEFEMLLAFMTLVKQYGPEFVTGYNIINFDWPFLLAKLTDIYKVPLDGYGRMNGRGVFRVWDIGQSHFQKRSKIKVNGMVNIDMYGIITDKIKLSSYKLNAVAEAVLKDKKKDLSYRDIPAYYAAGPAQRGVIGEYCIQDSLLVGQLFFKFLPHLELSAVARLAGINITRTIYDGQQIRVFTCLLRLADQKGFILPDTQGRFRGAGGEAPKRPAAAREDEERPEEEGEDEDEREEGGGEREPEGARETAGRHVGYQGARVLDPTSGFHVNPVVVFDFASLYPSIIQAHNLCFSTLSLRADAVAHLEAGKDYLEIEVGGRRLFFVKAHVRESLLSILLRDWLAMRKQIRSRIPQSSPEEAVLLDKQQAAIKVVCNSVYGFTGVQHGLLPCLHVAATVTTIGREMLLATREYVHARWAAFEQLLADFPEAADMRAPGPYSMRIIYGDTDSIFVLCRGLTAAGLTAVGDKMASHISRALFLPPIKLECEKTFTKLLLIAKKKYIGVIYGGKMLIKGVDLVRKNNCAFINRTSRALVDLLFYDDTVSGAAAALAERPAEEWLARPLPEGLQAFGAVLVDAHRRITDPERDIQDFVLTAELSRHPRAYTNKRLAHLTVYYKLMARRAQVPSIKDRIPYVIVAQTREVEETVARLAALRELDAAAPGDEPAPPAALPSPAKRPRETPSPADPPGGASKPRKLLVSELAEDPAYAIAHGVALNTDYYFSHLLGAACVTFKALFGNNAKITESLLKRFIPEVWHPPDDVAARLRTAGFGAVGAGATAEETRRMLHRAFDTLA
Procedure: The relative in vitro DNA synthesis by HSV-1 DNA Polymerase using dCTP or MMdCTP as the rate limiting substrate was determined. The synthesis was followed by assaying an incorporation of tritium labelled dAMP.
+ unlabelled dNTP concentration 10 μM
++ Radio labelled [^3 H]dAMP conc 0.2 μM
*One hundred percent activity represents 27355 cpm of [^3 H]dAMP
as §1, §2, §3

[2] = system: Herpes simplex virus type 1 (HSV-1); assay: Antiviral activity against HSV-1, viral plaque reduction (ED50); format: cell-based; conditions: for reversal of antiviral activity of MMdCyd, order of potency: FIGS. 4 to 6
Procedure: (§4) Infected cells were treated with different concentrations of MMdCyd and the concentration required to reduce viral plaque formation by 50%, i.e. ED50, was determined.
(§5) ^a ED50 : Concentration required to reduce viral plaque formatio
Vero cells were infected with the KOS strain of HSV-1. The compound of compounds indicated in Table 2, below, and are shown graphically in FIGS. 1, (H4 dUrd) and 2 (H4 Urd).
^a Antiviral assays were carried out using Vero cells. All compounds
were added immediately after virus infection.
(§6) The antiviral activity of MMdCyd in the presence of H4 dUrd was determined against several strains of HSV-1 and HSV-2.
Vero cells were infected with HSV-1, strain 76 and treated with MMdCyd at different times post virus infection.
The antiviral activity, ^a cyctotoxicity* and antiviral indices of MMdCyd in the presence of H4 dUrd, dGuo and H4 dUrd+dGuo were determined.
^a Antiviral assays were carried out using Vero cells. Compounds were
added immediately after virus infection. Virus HSV1, strains KOS and 76;
KOS, virus input = 50 PFU

[3] = system: Herpes simplex virus type 1 (HSV-1); assay: as above; format: cell-based; conditions: FIG. 13; HSV-1 KOS and 76, Vero, 20 PFU
[4] = system: Herpes simplex virus type 2 (HSV-2); assay: Antiviral activity against HSV-2, viral plaque reduction (ED50); format: cell-based; conditions: HSV-2
Procedure: as §4, §5, §6
^a Antiviral assays were carried out using Vero cells. Virus input 50
^b ED50 : Concentration required to reduce viral plaque formatio

[5] = system: Deoxynucleoside Triphosphate (dNTP) Pools in Vero Cells Infected with Herpes Simplex Virus Type 1; assay: Deoxynucleoside triphosphate (dNTP) pools in HSV-1 infected Vero cells; format: cell-based; conditions: Table 16, HSV-1 KOS infected Vero, treatment 7 hours, ± S.E.
Procedure: Example 9 was repeated, except that the Vero cells subjected to the treatment had all been infected with HSV-1 KOS strain prior to the treatment.
^a Cells were infected with 10 PFU/cell of HSV1 KOS strain for one
hour. Treatments were given for seven hours.
^a Cells were infected with 10 PFU/cell of HSV1, KOS strain after
^b H4 dUrd in MEM was added immediately after adsorption and
^c H4 dUrd in MEM was added immediately after adsorption and
(§7) Vero cells and HSV-infected Vero cells were treated with dGUO and dGUO and H4 dUrd. The cells were then assayed for the presence of deoxynucleoside triphosphates. Untreated Vero cells were also assayed for the presence of deoxynucleoside triphophate to provide a control.
^c Cells were infected with 10 PFU/cell of HSV1 strain KOS for one

[6] = system: Deoxynucleoside Triphosphate (dNTP) Pools in Uninfected Vero Cells; assay: Deoxynucleoside triphosphate (dNTP) pools in uninfected (mock-infected) Vero cells; format: cell-based
Procedure: Vero cells were treated with MMdCyd, H4 dUrd and MMdCyd+H4 dUrd. The cells were then assayed for the presence of deoxynucleoside triphosphates. Untreated Vero cells were also assayed for the presence of deoxynucleoside triphosphates, to provide a control.
^a Cells were mock infected for one hour. Different treatments were
^b Values are means of at least two assays of triplicate cell
as §7
Vero cells were treated with N-methyl-MMdCyd. The cells were then assayed for dNTP pools.

[7] = Table 16, uninfected Vero, treatment 7 hours, ± S.E.

CNc1nc(=O)n([C@H]2C[C@H](O)[C@@H](COP(=O)(O)OP(=O)(O)OP(=O)(O)O)O2)cc1COC [N-MeMMdCTP]
incorporation into DNA / substrate [1]: not incorporated into DNA | interference with incorporation of dCTP into DNA (E. coli DNA Polymerase 1; E. coli DNA polymerase): did not interfere with incorporation of dCTP into DNA | substrate for DNA polymerase (E. coli DNA Polymerase 1; E. coli DNA polymerase): did not serve as a substrate | cpm [^3 H]dAMP incorporated (E. coli DNA Polymerase 1; nucleotide 0.039 μM (mixture: dCTP at this concentration + N-MeMMdCTP 0.625 μM)): -18 cpm | cpm [^3 H]dAMP incorporated (E. coli DNA Polymerase 1; nucleotide 0.078 μM (mixture: dCTP at this concentration + N-MeMMdCTP 0.625 μM)): -7 cpm | cpm [^3 H]dAMP incorporated (E. coli DNA Polymerase 1; nucleotide 0.156 μM (mixture: dCTP at this concentration + N-MeMMdCTP 0.625 μM)): 3 cpm | cpm [^3 H]dAMP incorporated (E. coli DNA Polymerase 1; nucleotide 0.312 μM (mixture: dCTP at this concentration + N-MeMMdCTP 0.625 μM)): -9 cpm | cpm [^3 H]dAMP incorporated (E. coli DNA Polymerase 1; nucleotide 0.625 μM (mixture: dCTP at this concentration + N-MeMMdCTP 0.625 μM)): 3 cpm | cpm [^3 H]dAMP incorporated (E. coli DNA Polymerase 1; nucleotide 1.25 μM (mixture: dCTP at this concentration + N-MeMMdCTP 0.625 μM)): -20 cpm | cpm [^3 H]dAMP incorporated (E. coli DNA Polymerase 1; nucleotide 2.50 μM (mixture: dCTP at this concentration + N-MeMMdCTP 0.625 μM)): -17 cpm | cpm [^3 H]dAMP incorporated (E. coli DNA Polymerase 1; nucleotide 5.0 μM (mixture: dCTP at this concentration + N-MeMMdCTP 0.625 μM)): -16 cpm | incorporation into DNA / substrate (HSV-1 DNA Polymerase): not incorporated into DNA

COCc1cn([C@H]2C[C@H](O)[C@@H](COP(=O)(O)O)O2)c(=O)nc1N [MMdCMP, 5-methoxymethyl-2'-deoxycytidine monophosphate]
EC50 [2]: 10 to 14 µM | antiviral activity ([2]; HSV-1): potent inhibitor of HSV-1

O=c1ccn([C@H]2C[C@H](O)[C@@H](CO)O2)c(=O)[nH]1 [deoxyuridine, 2'-deoxyuridine, reference compound]
reversal of antiviral activity of MMdCyd, order of potency [2]: deoxythymidine>deoxyuridine>deoxycytidine

Nc1ncnc2c1ncn2[C@H]1C[C@H](O)[C@@H](CO)O1 [Deoxyadenosine, reference compound]
effect on antiviral activity of MMdCyd [3]: no effect on antiherpes activity of MMdCyd

CNc1nc(=O)n([C@H]2C[C@H](O)[C@@H](COP(=O)(O)O)O2)cc1COC [N-Me-MMdCMP, 5-Methoxymethyl-N^4-methyl-2'-deoxycytidine-5'-monophosphate]
antiviral activity [4]: completely inert | EC50 [2]: > 1800 µM | antiviral activity ([2]; HSV-1): completely inert

CNc1nc(=O)n([C@H]2C[C@H](O)[C@@H](CO)O2)cc1COC [N-Me-MMdCyd, 5-methoxymethyl-N4-methyl-2'-deoxycytidine]
EC50 [2]: > 1800 µM | antiherpes activity ([2]; summary statement): completely devoid of antiherpes activity | antiviral activity ([2]; up to 1796 μM): devoid of antiviral activity | dATP pool [5]: 7.4 ± 0.4 .rho. moles/10^6 cells | dCTP pool [5]: 18 ± 1.08 .rho. moles/10^6 cells | dGTP pool [5]: 58.9 ± 2.22 .rho. moles/10^6 cells | dTTP pool [5]: 419 ± 10.6 .rho. moles/10^6 cells | dATP pool [6, 7]: 32.2 ± 2.5 .rho. moles/10^6 cells | dCTP pool [6, 7]: 17.3 ± 1.32 .rho. moles/10^6 cells | dGTP pool [6, 7]: 36.3 ± 1.67 .rho. moles/10^6 cells | dTTP pool [6, 7]: 38.6 ± 1.22 .rho. moles/10^6 cells | effect on dNTP pools ([6]; Vero cells): did not cause perturbation of dNTP pools to any significant degree

Cc1cn([C@H]2C[C@H](O)[C@@H](CO)O2)c(=O)[nH]c1=O [deoxythymidine, 2'-deoxyribosylthymidine (thymidine), reference compound]
reversal of antiviral activity of MMdCyd, order of potency [2]: deoxythymidine>deoxyuridine>deoxycytidine

COCc1cn([C@H]2C[C@H](OC(C)=O)[C@@H](COC(C)=O)O2)c(=O)nc1N [Di-AC-MMdCyd, 5-methoxymethyl-3',5'-diacetyl-2'-deoxycytidine]
EC50 [2]: 535 µM | potency against HSV-1 relative to parent compound (times lower) ([2]; vs MMdCyd, cell culture): approximately 20 times

Nc1ccn([C@H]2C[C@H](O)[C@@H](CO)O2)c(=O)n1 [deoxycytidine, 2'-deoxycytidine, reference compound]
reversal of antiviral activity of MMdCyd, order of potency [2]: deoxythymidine>deoxyuridine>deoxycytidine | effect on dose-response curve of MMdCyd ([2]; equimolar concentrations, FIG. 5): parallel upward shift

Cc1cn([C@H]2C[C@H](O)[C@@H](CO)O2)c(=O)nc1N [MedCyd, 5-methyl-2'-deoxycytidine, reference compound]
EC50 [2]: > 530 µM | antiviral activity ([2]; up to 128 μg/ml, HSV-1): devoid of activity

O=C1NC(O)CCN1[C@@H]1O[C@H](CO)[C@@H](O)[C@H]1O (stereo partly drawn) [H4 Urd, tetrahydrouridine, reference compound]
potentiation of the activity of MMdCyd (fold) ([2]; H4 Urd with MMdCyd): approximately 2 fold
